Measured values from patent US8232406B2, “c-MET protein kinase inhibitors” (Vertex Pharmaceuticals Incorporated, priority 2006, dated 2012).

Molecular target: c-MET (Homo sapiens, UniProt P08581)
Test: Ki determination for the inhibition of c-MET (standard radiometric 33P-ATP kinase assay, polyE4Y substrate)
Assay type: biochemical
Conditions: 1.0 nM c-Met, 35 μM ATP, 0.5 mg/mL polyE4Y, 20 min; competitive tight-binding fit
Protocol: Ki Determination for the Inhibition of c-MET
Compounds of the invention were screened for their ability to inhibit c-MET kinase activity using a standard radiometric assay. Briefly, in this kinase assay the transfer of the terminal ^33P-phosphate in ^33P-ATP to substrate polyE4Y is interrogated. The assay was carried out in 96-well plates to a final volume of 100 μL per well containing 1.0 nM c-Met, 100 mM HEPES (pH 7.5), 10 mM MgCl2, 25 mM NaCl, 0.01% BSA, 1 mM DTT, 0.5 mg/mL polyE4Y, and 35 μM ATP. Accordingly, compounds of the invention were dissolved in DMSO to make 10 mM initial stock solutions. Serial dilutions in DMSO were then made to obtain the final solutions for the assay. A 1.5 μL aliquot of DMSO or inhibitor in DMSO was added to each well. The reaction was initiated by the addition of ^33P-ATP and polyE4Y (obtained from Sigma). After 20 min, the reaction was quenched with 50 μL of 30% trichloroacetic acid (TCA) containing 4 mM ATP. The reaction mixture was transferred to the 0.66 mm GF filter plates (Corning) and washed three times with 5% TCA. Following the addition of 50 μL of Ultimate Gold™ high efficiency scintillant (Packard Bioscience), the samples were counted in a Packard TopCount NXT Microplate Scintillation and Luminescence Counter (Packard BioScience). The Ki values were calculated using Microsoft Excel Solver macros to fit the data to the kinetic model for competitive tight-binding inhibition.

c-MET, sequence (P08581 25-1390): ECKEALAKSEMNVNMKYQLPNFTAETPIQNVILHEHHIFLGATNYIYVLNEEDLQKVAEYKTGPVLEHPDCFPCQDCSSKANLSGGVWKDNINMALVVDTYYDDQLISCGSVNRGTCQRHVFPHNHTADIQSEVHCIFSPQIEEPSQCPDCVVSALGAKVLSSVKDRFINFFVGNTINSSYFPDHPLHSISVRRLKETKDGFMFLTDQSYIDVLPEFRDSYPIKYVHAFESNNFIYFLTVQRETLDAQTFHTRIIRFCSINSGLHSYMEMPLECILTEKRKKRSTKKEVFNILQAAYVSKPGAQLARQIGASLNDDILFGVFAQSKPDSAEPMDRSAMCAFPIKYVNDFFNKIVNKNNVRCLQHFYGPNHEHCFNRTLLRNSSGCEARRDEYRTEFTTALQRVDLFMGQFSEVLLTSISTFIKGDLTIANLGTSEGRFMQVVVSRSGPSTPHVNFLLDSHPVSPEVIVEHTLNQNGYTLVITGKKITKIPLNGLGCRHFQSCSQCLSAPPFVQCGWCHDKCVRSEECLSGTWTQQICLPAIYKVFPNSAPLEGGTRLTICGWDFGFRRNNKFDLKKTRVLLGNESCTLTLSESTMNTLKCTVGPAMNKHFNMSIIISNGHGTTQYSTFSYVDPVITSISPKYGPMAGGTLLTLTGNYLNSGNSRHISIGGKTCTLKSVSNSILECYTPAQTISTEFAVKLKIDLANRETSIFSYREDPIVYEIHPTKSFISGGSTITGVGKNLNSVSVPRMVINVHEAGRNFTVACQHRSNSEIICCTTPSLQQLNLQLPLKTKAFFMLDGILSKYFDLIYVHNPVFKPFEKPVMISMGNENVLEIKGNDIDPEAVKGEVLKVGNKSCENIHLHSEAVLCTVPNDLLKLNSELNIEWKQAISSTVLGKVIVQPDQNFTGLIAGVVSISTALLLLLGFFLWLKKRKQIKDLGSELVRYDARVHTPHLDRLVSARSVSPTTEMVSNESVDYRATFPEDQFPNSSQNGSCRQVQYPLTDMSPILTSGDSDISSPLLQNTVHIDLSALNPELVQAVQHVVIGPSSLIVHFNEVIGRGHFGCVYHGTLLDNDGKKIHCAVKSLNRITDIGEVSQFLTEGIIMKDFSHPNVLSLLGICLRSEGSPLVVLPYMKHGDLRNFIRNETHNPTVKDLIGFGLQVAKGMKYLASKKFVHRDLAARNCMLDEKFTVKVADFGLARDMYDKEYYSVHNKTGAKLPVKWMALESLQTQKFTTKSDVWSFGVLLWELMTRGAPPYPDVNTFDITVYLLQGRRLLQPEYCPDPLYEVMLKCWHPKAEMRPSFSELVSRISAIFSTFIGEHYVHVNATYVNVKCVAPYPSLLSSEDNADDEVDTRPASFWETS

Nc1ncc(-c2cnn(C3CCNCC3)c2)cc1-c1nnnn1-c1cccc(F)c1Cl [I-A-385]
Ki: ≤ 0.1 µM

Nc1ncc(-c2cc3c(s2)CNCC3)nc1-c1nnnn1-c1cccc(Cl)c1F [I-A-542]
Ki: ≤ 0.1 µM

CCNC(=O)Nc1nc2cc(F)c(-c3cnc(N)c(-c4nnnn4-c4cccc(F)c4F)n3)cc2[nH]1 [I-A-53]
Ki: 0.1 to 1 µM

CCN1CCC(n2cc(-c3cnc(N)c(-c4nnnn4-c4cccc(F)c4F)c3)cn2)CC1 [I-A-435]
Ki: ≤ 0.1 µM

CC(C)C(=O)N1CC=C(c2cnc(N)c(-c3nnnn3-c3cccc(F)c3F)c2)CC1 [I-A-512]
Ki: ≤ 0.1 µM

COc1cc(-c2cnc(N)c(-c3nnnn3-c3cccc(F)c3F)c2)cc(OC)c1OC [I-A-296]
Ki: 0.1 to 1 µM

Nc1ncc(-c2cnn(CC3COCO3)c2)cc1-c1nnnn1-c1cccc(F)c1F (centres unmarked) [I-A-433]
Ki: ≤ 0.1 µM

Nc1ncc(-c2cnn(C3CCNCC3)c2)nc1-c1nnnn1-c1cccc(F)c1F [I-A-468]
Ki: ≤ 0.1 µM

CC(C)c1cccc(-c2cnc(N)c(-c3nnnn3-c3cccc(F)c3F)c2)c1 [I-A-236]
Ki: 0.1 to 1 µM

Cc1c(Cl)cccc1-n1nnnc1-c1cc(-c2cccnc2)cnc1N [I-A-551]
Ki: 0.1 to 1 µM

Nc1ncc(-c2cc3c(s2)CCNCC3)nc1-c1nnnn1-c1cccc(F)c1F [I-A-653]
Ki: ≤ 0.1 µM

COCCC(=O)N1CC=C(c2cnc(N)c(-c3nnnn3-c3cccc(F)c3F)c2)CC1 [I-A-514]
Ki: ≤ 0.1 µM

Nc1ncc(-c2cnn(C3CCNCC3)c2)cc1-n1nnnc1-c1cccc(F)c1F [I-E-1]
Ki: 0.1 to 1 µM

Nc1ncc(-c2cnn([C@@H]3CCCNC3)c2)nc1-c1nnnn1-c1cccc(F)c1F [I-A-659]
Ki: ≤ 0.1 µM

CN(C(=O)Nc1ccc(-c2cnc(N)c(-c3nnnn3-c3cccc(F)c3F)c2)cc1)c1ccccc1 [I-A-279]
Ki: 0.1 to 1 µM

Nc1ncc(-c2cnn([C@H]3CCCNC3)c2)cc1-c1nnnn1-c1cccc(Cl)c1Cl [I-A-409]
Ki: ≤ 0.1 µM

Nc1ncc(-c2cnn([C@@H]3CCNC3)c2)cc1-c1nnnn1-c1cccc(Cl)c1Cl [I-A-408]
Ki: ≤ 0.1 µM

CC(C)CN(C)Cc1ccc(-c2cnc(N)c(-c3nnnn3-c3cccc(F)c3F)c2)cc1 [I-A-150]
Ki: ≤ 0.1 µM

Nc1ncc(-c2ccc(CN3CCCC3=O)cc2)cc1-c1nnnn1-c1cccc(F)c1F [I-A-203]
Ki: ≤ 0.1 µM

CN(C)Cc1ccc(-c2cnc(N)c(-c3nnnn3-c3cc(F)ccc3F)c2)cc1 [I-A-580]
Ki: 0.1 to 1 µM

Nc1ncc(-c2cnn(C3CCN(C(=O)CO)CC3)c2)cc1-c1nnnn1-c1cccc(Cl)c1F [I-A-447]
Ki: ≤ 0.1 µM

Nc1ncc(-c2cc(Cl)c(N)c(Cl)c2)cc1-c1nnnn1-c1cccc(F)c1F [I-A-287]
Ki: ≤ 0.1 µM

CN1C[C@@H]2C[C@H]1CN2c1ccc(-c2cnc(N)c(-c3nncn3-c3cccc(F)c3F)n2)cc1 [I-A-9]
Ki: ≤ 0.1 µM

Nc1ncc(-c2ccc(N3CCNCC3)cc2)cc1-c1nc2cnccc2n1-c1cccc(F)c1F [I-D-23]
Ki: ≤ 0.1 µM

Nc1ncc(-c2cnn(C3CCN(CC4CCC4)CC3)c2)cc1-c1nnnn1-c1cccc(Cl)c1F [I-A-473]
Ki: ≤ 0.1 µM

Nc1ncc(-c2cnn(C3CCN(C4CCC4)CC3)c2)cc1-c1nnnn1-c1cccc(F)c1F [I-A-451]
Ki: ≤ 0.1 µM

Nc1ncc(-c2cncs2)cc1-c1nnnn1-c1cccc(F)c1F [I-A-540]
Ki: ≤ 0.1 µM

COC(=O)C(N)c1ccc(-c2cnc(N)c(-c3nnnn3-c3cccc(F)c3F)c2)cc1 (centres unmarked) [I-A-206]
Ki: ≤ 0.1 µM

CC(=O)Nc1ccc(-c2cnc(N)c(-c3nnnn3-c3cccc(Cl)c3F)c2)cc1 [I-A-584]
Ki: ≤ 0.1 µM

CC(=O)N1CCC(n2cc(-c3cnc(N)c(-c4nnc(C)n4-c4cccc(Cl)c4F)c3)cn2)CC1 [I-A-457]
Ki: ≤ 0.1 µM

Nc1ncc(-c2cnn(C[C@@H]3CCCN3)c2)cc1-c1nnnn1-c1cccc(F)c1F [I-A-500]
Ki: ≤ 0.1 µM

CC(=O)Nc1cccc(-c2cnc(N)c(-c3nnnn3-c3cccc(F)c3F)c2)c1 [I-A-139]
Ki: ≤ 0.1 µM

Cn1cc(-c2cnc(N)c(-c3nnnn3-c3cccc(F)c3F)c2)cn1 [I-A-249]
Ki: ≤ 0.1 µM

Nc1ncc(-c2nc3c(s2)CNCC3)cc1-c1nnnn1-c1cccc(Cl)c1Cl [I-A-467]
Ki: 0.1 to 1 µM

Nc1ncc(-c2ccc(NC(=O)CN3CCCC3)cc2)cc1-c1nnnn1-c1cccc(F)c1F [I-A-184]
Ki: ≤ 0.1 µM

Nc1ncc(-c2ccc(CN3CCCC3)cc2)cc1-c1nnnn1-c1c(F)cccc1F [I-A-615]
Ki: ≤ 0.1 µM

Nc1ncc(C2=CCN(C(=O)CC3CC3)CC2)cc1-c1nnnn1-c1cccc(F)c1F [I-A-524]
Ki: ≤ 0.1 µM

CC(=O)Nc1cccc(-c2cnc(N)c(-c3nnnn3-c3c(Cl)cccc3Cl)c2)c1 [I-A-611]
Ki: 0.1 to 1 µM

NC(=O)c1ccc(-c2cnc(N)c(-c3nnnn3-c3cccc(F)c3F)c2)cc1 [I-A-245]
Ki: ≤ 0.1 µM

Nc1ncc(-c2ccc(NC(=O)CN3CCOCC3)cc2)cc1-c1nnnn1-c1cccc(F)c1F [I-A-163]
Ki: 0.1 to 1 µM

Nc1ncc(-c2cnn(C3CCNCC3)c2)cc1-c1nnnn1-c1cc(F)ccc1Cl [I-A-637]
Ki: 0.1 to 1 µM

CN(C)CCNC(=O)c1ccc(-c2cnc(N)c(-c3nnnn3-c3cccc(F)c3F)c2)cc1 [I-A-135]
Ki: ≤ 0.1 µM

Nc1ncc(-c2ccc(F)cc2)cc1-c1nnnn1-c1cccc(F)c1F [I-A-223]
Ki: ≤ 0.1 µM

CC(=O)N1CCC[C@H]1C(=O)N1CC=C(c2cnc(N)c(-c3nnnn3-c3cccc(F)c3F)c2)CC1 [I-A-641]
Ki: 0.1 to 1 µM

Nc1ncc(-c2ccc3c(c2)OCCO3)cc1-c1nnnn1-c1cccc(F)c1F [I-A-235]
Ki: ≤ 0.1 µM

CN(C)Cc1ccc(-c2cnc(N)c(-c3nncn3-c3cccc(F)c3F)n2)cc1 [I-A-8]
Ki: ≤ 0.1 µM

Nc1ncc(-c2cn[nH]c2)cc1-c1nncn1-c1cccc(Cl)c1F [I-A-439]
Ki: 0.1 to 1 µM

CN(C)Cc1ccc(-c2cnc(N)c(-c3nnnn3-c3cc(Cl)ccc3F)c2)cc1 [I-A-593]
Ki: 0.1 to 1 µM

COCCOC(=O)N1CCC(n2cc(-c3cnc(N)c(-c4nnnn4-c4cccc(Cl)c4F)c3)cn2)CC1 [I-A-440]
Ki: ≤ 0.1 µM

Nc1ncc(-c2ccsc2)cc1-c1nncn1-c1cccc(Cl)c1Cl [I-A-70]
Ki: 0.1 to 1 µM

Nc1ncc(-c2ccc(CN3CC[C@@H](O)C3)cc2)cc1-c1nnnn1-c1cccc(Cl)c1Cl [I-A-119]
Ki: ≤ 0.1 µM

Nc1ncc(-c2ccc(O)c(F)c2)cc1-c1nnnn1-c1cccc(F)c1F [I-A-295]
Ki: ≤ 0.1 µM

Nc1ncc(-c2ccc(CN3CCOCC3)cc2)nc1-c1nnnn1-c1cccc(F)c1F [I-A-51]
Ki: ≤ 0.1 µM

CN(C)Cc1ccc(-c2cnc(N)c(-c3nnnn3-c3c(F)ccc(F)c3F)c2)cc1 [I-A-381]
Ki: ≤ 0.1 µM

Nc1ncc(-c2ccn(CCN3CCCC3)c2)cc1-c1nnnn1-c1cccc(F)c1F [I-A-466]
Ki: ≤ 0.1 µM

COCCN1CCC(n2cc(-c3cnc(N)c(-c4nnnn4-c4cccc(Cl)c4F)c3)cn2)CC1 [I-A-477]
Ki: ≤ 0.1 µM

Cc1c(Cl)cccc1-n1nnnc1-c1cc(-c2ccc(CN(C)C)cc2)cnc1N [I-A-578]
Ki: 0.1 to 1 µM

Nc1ncc(-c2cnn(CCO)c2)cc1-c1nc2cnccc2n1-c1cccc(F)c1F [I-D-8]
Ki: ≤ 0.1 µM

CN1CCN(Cc2ccc(-c3cnc(N)c(-c4nncn4-c4cccc(F)c4F)n3)cc2)CC1 [I-A-6]
Ki: ≤ 0.1 µM

Nc1ncc(-c2ccccn2)cc1-c1nnnn1-c1cccc(F)c1F [I-A-493]
Ki: 0.1 to 1 µM

CN(C)Cc1ccc(-c2cnc(N)c(-c3nnnn3-c3cccc(F)c3F)c2)cc1 [I-A-63]
Ki: ≤ 0.1 µM

Nc1ncc(-c2cnn(C3CCNCC3)c2)cc1-c1nnnn1-c1cc(Cl)ccc1F [I-A-635]
Ki: ≤ 0.1 µM

CNCc1ccc(-c2cnc(N)c(-c3nnnn3-c3cccc(F)c3F)c2)cc1 [I-A-200]
Ki: ≤ 0.1 µM

CCC(=O)N1CC=C(c2cnc(N)c(-c3nnnn3-c3cccc(F)c3F)c2)CC1 [I-A-511]
Ki: ≤ 0.1 µM

Nc1ncc(-c2ccc(CN3CCCC3)cc2)cc1-c1nc2cnccc2n1-c1cccc(F)c1F [I-D-3]
Ki: ≤ 0.1 µM

Nc1ncc(-c2ccc(CN3CCCC3)cc2)cc1-c1nnnn1-c1cc(F)ccc1F [I-A-594]
Ki: 0.1 to 1 µM

Nc1ncc(-c2cccc(F)c2F)cc1-c1nnnn1-c1cccc(F)c1F [I-A-301]
Ki: 0.1 to 1 µM

CN1CCN(C(=O)Nc2cccc(-c3cnc(N)c(-c4nnnn4-c4cccc(F)c4F)c3)c2)CC1 [I-A-270]
Ki: 0.1 to 1 µM

Nc1ncc(-c2cccc3c2OCO3)cc1-c1nnnn1-c1cccc(F)c1F [I-A-305]
Ki: ≤ 0.1 µM

Cc1c(Cl)cccc1-n1nnnc1-c1cc(-c2cnn(C3CCNCC3)c2)cnc1N [I-A-624]
Ki: ≤ 0.1 µM

Nc1ncc(-c2cccnc2)cc1-c1nnnn1-c1cccc(Cl)c1Cl [I-A-83]
Ki: 0.1 to 1 µM

N#Cc1cc(-c2cnc(N)c(-c3nnnn3-c3cccc(F)c3F)c2)ccc1N1CCCC1 [I-A-336]
Ki: 0.1 to 1 µM

COCC(=O)Nc1ccc(-c2cnc(N)c(-c3nnnn3-c3cccc(F)c3F)c2)cc1 [I-A-342]
Ki: ≤ 0.1 µM

CC(C)(C#N)c1ccc(-c2cnc(N)c(-c3nnnn3-c3cccc(F)c3F)c2)cc1 [I-A-266]
Ki: ≤ 0.1 µM

C[C@H](c1ccc(-c2cnc(N)c(-c3nnnn3-c3cccc(F)c3F)c2)cc1)N1CCCC1 [I-A-212]
Ki: ≤ 0.1 µM

CN(CCc1ccccn1)Cc1ccc(-c2cnc(N)c(-c3nnnn3-c3cccc(Cl)c3Cl)c2)cc1 [I-A-102]
Ki: 0.1 to 1 µM

Nc1ncc(-c2cc3c(s2)CCNCC3)cc1-c1nnnn1-c1cccc(Cl)c1F [I-A-481]
Ki: ≤ 0.1 µM
